Patent US8372848B2, “Melanin-concentrating hormone receptor antagonists and methods of use” (Mixture Sciences, Inc., priority 2004, dated 2013)
“Also recorded” adds a separate entry of the source.

Columns and labels:
[1] = molecular target: T1, neuropeptide Y2 (Homo sapiens, UniProt P49146); assay: Selectivity versus neuropeptide Y2; format: cell-based
T1 sequence (P49146 1-381): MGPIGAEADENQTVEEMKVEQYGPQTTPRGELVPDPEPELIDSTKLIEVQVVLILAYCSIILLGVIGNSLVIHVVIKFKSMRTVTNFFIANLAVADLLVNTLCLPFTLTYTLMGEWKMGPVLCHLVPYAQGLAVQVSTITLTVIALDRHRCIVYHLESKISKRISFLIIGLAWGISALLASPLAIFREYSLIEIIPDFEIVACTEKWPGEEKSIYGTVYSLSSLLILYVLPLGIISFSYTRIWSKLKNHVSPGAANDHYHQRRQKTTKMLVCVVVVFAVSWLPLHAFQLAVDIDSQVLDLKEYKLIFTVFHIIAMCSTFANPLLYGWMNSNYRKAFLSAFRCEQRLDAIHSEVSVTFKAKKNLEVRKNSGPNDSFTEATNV

[2] = molecular target: rat MCH1R (Rattus norvegicus, UniProt P97639); assay: MCH-induced Ca2+ mobilization (FLIPR) in HEK 293T cells expressing rat MCH1R; format: cell-based
[3] = molecular target: human MCH2R (Homo sapiens, UniProt Q969V1); assay: Selectivity versus human MCH2R; format: cell-based
[4] = system: rats; assay: Spontaneous food intake after icv administration, Example IV; format: in vivo, rat; conditions: 5 nmol icv
Method: To determine inhibitory effects of TPI 1361-17 on spontaneous food intake, TPI 1361-17 (5 nmol) was administered icv and food intake was measured 0.5 h, 1 h, 2 h, and 4 h after the injection. Food intake was quantified either at the start of either the dark phase, which is considered similar to natural conditions, or the light phase. To synchronize initiation of the food intake and to measure the efficiency of TPI 1361-17, rat food pellets were removed for different lengths of time before the injection. It was observed that TPI 1361-17 reduced spontaneous food intake of rats that have been fasted for 1 hr before the dark phase by 37%. This inhibitory effect was detected within the first 30 minutes of feeding and is not detected later (FIG. 6A).
The two groups of rats that were tested at the beginning of the dark phase were starved for 1 h or 4 h before, being injected with 5 nmol of antagonist or ACSF between 6:00-7:00 p.m. Animals had free access to water. Fifteen minutes after injection, container of regular low-fat diet were placed in the cage, and food consumption was monitored for 4 h. The group of rats that were injected at the beginning of the light phase was starved overnight before being injected at 5 nmol of antagonist or ACSF. Monitoring of the food consumption was identical to that described for the rats starved during the dark phase.
For animal studies, adult male Sprague-Dawley rats weighing 200-300g were obtained from Charles River Laboratories (Wilmington, Mass.), bearing a 23-gauge stainless steel cannula placed into the right lateral ventricle. Rats were housed individually and maintained on a 12 h light-dark cycle (6:00 am-6:00 pm light) with free access to tap water and rat chaw (PROLAB RMH 2500, containing 23.0% protein, 4.5% fat, gross energy 4.5 kcal/g. PMI nutrition international, LLC. Brentwood, Mo.). […]

[5] = molecular target: T2, MCH1R (Rattus norvegicus, UniProt P97639); assay: Library screening: inhibition of 30 nM MCH-induced Ca2+ mobilization in CHO cells expressing MCH1R; format: cell-based; conditions: five concentrations, ten-fold dilutions starting at 10 µM
T2 construct: expressed in transfected cells; host or cells: CHO
Method: A total of thirteen heterocyclic or peptidomimetics PS-SCLs containing 8,136,870 individual compounds were tested (Table 1). Most libraries were generated in a PS format by using 40˜50 amino acids at each of the R1 and R2 positions, and 40˜80 carboxylic acids at the R3 position. A sample set of PS-SCLs was screened initially, sub-libraries with defined R3 positions and a mixture of building blocks at each of the other two positions were prepared (all compounds in the library are represented). Each sub-library was composed of 40˜80 mixtures containing 1,500˜3,200 individual compounds. […]
Each mixture was assayed in duplicate in three separate assays at three concentrations (1, 0.1 and 0.01 µg/ml) (FIG. 1B). MCH1R inhibition was calculated as the percent decrease in intracellular Ca^2+ mobilization in MCH1R expressing CHO cells induced by 30 nM MCH in the presence or absence of the mixture. […]
Transfected […] cells seeded on black-walled 96-well plates (Sigma, St Louis USA) were loaded for 1 h at 37° C. with Ca^2+-sensitive fluorescent dye, fluo-4 (Molecular Device, CA) in Hanks' balanced salt solution containing 20 mM HEPES (pH 7.4). The level of [Ca^2+]i was then monitored using a FLIPR system (Fluorometric Imaging Plate Reader; Molecular Devices, San Francisco, Calif.). […] Data were expressed as fluorescence (arbitrary units) versus time.

human MCH2R, sequence (Q969V1 whole entry): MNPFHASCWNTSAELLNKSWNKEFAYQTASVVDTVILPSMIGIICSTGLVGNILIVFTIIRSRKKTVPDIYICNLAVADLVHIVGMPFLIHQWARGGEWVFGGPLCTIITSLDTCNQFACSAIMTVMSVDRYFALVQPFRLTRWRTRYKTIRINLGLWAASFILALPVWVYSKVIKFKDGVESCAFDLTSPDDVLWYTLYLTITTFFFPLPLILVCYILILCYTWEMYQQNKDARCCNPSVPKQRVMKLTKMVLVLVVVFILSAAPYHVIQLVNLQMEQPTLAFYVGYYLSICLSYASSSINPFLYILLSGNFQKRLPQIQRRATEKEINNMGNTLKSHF
rat MCH1R, sequence (P97639 whole entry): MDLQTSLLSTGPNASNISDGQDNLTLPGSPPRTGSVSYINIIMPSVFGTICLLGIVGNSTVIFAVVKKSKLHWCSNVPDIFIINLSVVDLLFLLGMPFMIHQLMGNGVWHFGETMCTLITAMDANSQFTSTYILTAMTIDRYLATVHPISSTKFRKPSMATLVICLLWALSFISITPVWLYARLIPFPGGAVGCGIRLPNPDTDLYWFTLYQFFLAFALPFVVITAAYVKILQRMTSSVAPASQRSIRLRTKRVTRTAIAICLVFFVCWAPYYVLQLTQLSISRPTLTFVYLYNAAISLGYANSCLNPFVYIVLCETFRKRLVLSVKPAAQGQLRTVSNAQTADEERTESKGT
T2 sequence (P97639 whole entry): as above

SMILES: C[C@@H](CNCc1ccccc1)N1C[C@H](CCCNC(=N)N)N(CCc2cccc(F)c2)C1=S [TPI 1361-17, N-(3-{(4S)-1-[(1S)-2-(benzylamino)-1-methylethyl]-3-[2-(3-fluorophenyl)ethyl]-2-thioxoimidazolidin-4-yl}propyl)guanidine]
- Selectivity for MCH1R compared with neuropeptide Y2 [1]: more than 1,000 fold
- IC50 ([2]; 1 nM MCH, HEK 293T cells expressing rat MCH1R): 6.1 nM
- Slope of Schild regression ([2]; r2=0.975): 1.085±0.010
- Kb ([2]; read-out: Kb predicted from Schild regression): 0.37 nM
- pA2 (Schild regression) ([2]; shift of MCH dose response curves): 9.43
- Change of basal Ca2+ level by the compound itself ([2]; without MCH): did not change the basal Ca^2+ level
- Affinity to / antagonism of human MCH2R [3]: no affinity; also recorded: not appreciably antagonize
- Selectivity for MCH1R compared with human MCH2R [3]: more than 1,000 fold
- Reduction of spontaneous food intake ([4]; fasted 1 hr before dark phase, first 30 minutes of feeding): 37%
- Effect on spontaneous food intake ([4]; fasted 4 h before the dark phase): no apparent effect
- Effect on spontaneous food intake ([4]; fasted 12 hrs before the light phase): no apparent effect
- IC50 inhibiting 30 nM MCH-induced Ca2+ mobilization, 84 individual compounds [5]: highest affinity
